Read-outs that look alike come from different tables or passages of the source. Where a SMILES comes first, the peptide text is derived from it. Bridges are numbered along the chain shown (N, C = ends). [ ]: non-standard residue; d: D form. The star is where a group is joined. hPhe(3-Cl-4-CF3) = N[C@@H](CCc1ccc(C(F)(F)F)c(Cl)c1)C(=O)O; NPrPhe(4-CF3) = CCCN[C@@H](Cc1ccc(C(F)(F)F)cc1)C(=O)O; NMeGly(cPent) = CN[C@H](C(=O)O)C1CCCC1; NMeD = CN[C@@H](CC(=O)O)C(=O)O; NMeL = CN[C@@H](CC(C)C)C(=O)O; Morpholide = C1CN(*)CCO1; Aze = O=C(O)[C@@H]1CCN1; Ac4c = NC1(C(=O)O)CCC1; Sar = CNCC(=O)O
Key:
[1] = target: GDP-bound KRAS wild-type protein (Homo sapiens, UniProt P01116); assay: Binding to KRAS by surface plasmon resonance (SPR), Single Cycle Kinetics; conditions: GDP-bound KRAS wild-type protein, read-out: KRAS KD
GDP-bound KRAS wild-type protein, sequence (P01116 whole entry): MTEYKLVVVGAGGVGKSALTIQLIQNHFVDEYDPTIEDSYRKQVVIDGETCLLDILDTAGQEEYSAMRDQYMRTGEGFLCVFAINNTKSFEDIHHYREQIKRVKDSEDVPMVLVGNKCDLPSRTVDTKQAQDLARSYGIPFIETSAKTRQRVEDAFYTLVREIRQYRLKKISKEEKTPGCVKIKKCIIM

[2] = target: GDP-bound NRAS wild-type protein (Homo sapiens, UniProt P01111); assay: Binding to NRAS by surface plasmon resonance (SPR), Single Cycle Kinetics; conditions: for NRAS/KRAS (ratio of KD value for NRAS to KD value for KRAS): GDP-bound NRAS wild-type protein vs GDP-bound KRAS wild-type protein
GDP-bound NRAS wild-type protein, sequence (P01111 whole entry): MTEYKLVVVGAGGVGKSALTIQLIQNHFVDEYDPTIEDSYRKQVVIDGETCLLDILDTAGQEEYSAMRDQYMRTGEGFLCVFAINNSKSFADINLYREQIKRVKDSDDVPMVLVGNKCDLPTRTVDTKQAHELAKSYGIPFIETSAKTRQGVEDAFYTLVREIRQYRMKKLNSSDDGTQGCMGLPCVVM

[3] = target: GDP-bound HRAS wild-type protein (Homo sapiens, UniProt P01112); assay: Binding to HRAS by surface plasmon resonance (SPR), Single Cycle Kinetics; conditions: for HRAS/KRAS (ratio of KD value for HRAS to KD value for KRAS): GDP-bound HRAS wild-type protein vs GDP-bound KRAS wild-type protein
GDP-bound HRAS wild-type protein, sequence (P01112 whole entry): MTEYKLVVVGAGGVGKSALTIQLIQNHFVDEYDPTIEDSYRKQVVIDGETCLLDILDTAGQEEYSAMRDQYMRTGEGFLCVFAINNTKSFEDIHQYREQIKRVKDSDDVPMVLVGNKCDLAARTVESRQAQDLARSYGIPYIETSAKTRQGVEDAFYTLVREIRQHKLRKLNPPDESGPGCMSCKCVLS

[4] = system: human lung cancer strain NCI-H441;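 note: cell proliferation inhibition after four days measured by CellTiter-Glo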
[5] = SPR Single Cycle Kinetics, 1:1 binding model
[6] = SPR, Single Cycle Kinetics, 1:1 binding model

Row | SMILES | Kd ([1]; SPR, Single Cycle Kinetics) [nM] | NRAS/KRAS (ratio of KD value for NRAS to KD value for KRAS) ([2]; SPR) | HRAS/KRAS (ratio of KD value for HRAS to KD value for KRAS) ([3]; SPR) | IC50 [4] [nM] | Kd [1, 6] [nM] | NRAS/KRAS (ratio of KD value for NRAS to KD value for KRAS) ([2]; SPR, KD ratio class) | HRAS/KRAS (ratio of KD value for HRAS to KD value for KRAS) ([3]; SPR, KD ratio class) | further results
1 | CCO[C@@H]1C[C@H]2C(=O)NC3(CCC3)C(=O)N(C)[C@@H](C3CCCC3)C(=O)N(C)[C@H](C(=O)N3CCOCC3)CC(=O)N(C)[C@@H](COC)C(=O)N[C@@H]([C@@H](C)CC)C(=O)N(C)CC(=O)N(C)[C@H]3CCCCCN(C3=O)[C@@H](Cc3ccc(F)cc3)C(=O)N(C)CC(=O)N[C@@H](CCc3cc(F)c(C(F)(F)F)c(F)c3)C(=O)N2C1 [PP1179] | 0.091 | B (a compound having 3 or more and less than 10 is denoted as B) | B (a compound having 3 or more and less than 10 is denoted as B) | 56.9 | – | – | – | –
2 | CCC[C@H]1C(=O)N[C@H]([C@@H](C)CC)C(=O)N2C[C@@H](OC)C[C@H]2C(=O)N(C)[C@H]2C/C=C\CCN(C2=O)[C@@H](Cc2ccc(C)cc2)C(=O)N(C)CC(=O)N[C@@H](CCc2ccc(C(F)(F)F)c(Cl)c2)C(=O)N2C[C@H](OCC)C[C@H]2C(=O)NC2(CCC2)C(=O)N(C)[C@@H](C2CCCC2)C(=O)N(C)[C@H](C(=O)N(C)C)CC(=O)N1C (stereo in doubt) [PP2552] | – | – | – | 30.5 | – | – | – | Kd [1, 5]: 0.28 nM; NRAS/KRAS (ratio of KD value with respect to GDP-bound NRAS wild-type protein to KD value with respect to KRAS) ([2]; SPR KD ratio NRAS/KRAS, class symbols): A (a compound having 10 or more and less than 20 is denoted as A); HRAS/KRAS (ratio of KD value with respect to GDP-bound HRAS wild-type protein to KD value with respect to KRAS) ([3]; SPR KD ratio HRAS/KRAS, class symbols): B (a compound having 3 or more and less than 10 is denoted as B)
3 | CCCOC[C@H]1C(=O)N[C@@H]([C@@H](C)OCC)C(=O)N2CCC[C@H]2C(=O)N(C)[C@H]2C/C=C\CCN(C2=O)[C@@H](Cc2ccc(C)cc2)C(=O)N(C)CC(=O)N[C@@H](CCc2ccc(C(F)(F)F)c(OC)c2)C(=O)N2C[C@@H](C)C[C@H]2C(=O)NC2(CC(C)(C)C2)C(=O)N(C)[C@@H](C2CCCC2)C(=O)N(C)[C@H](C(=O)N(C)CC)CC(=O)N1C [PP2431] | 2.3 | A (a compound having 10 or more and less than 20 is denoted as A) | A (a compound having 10 or more and less than 20 is denoted as A) | 79.5 | – | – | – | –
4 | CCCN1C(=O)[C@@H]2CCN2C(=O)CN(C)C(=O)[C@H]([C@@H](C)CC)NC(=O)[C@H](CC(C)C)N(C)C(=O)C[C@@H](C(=O)N2CCOCC2)N(C)C(=O)[C@H](C2CCCC2)N(C)C(=O)C2(CCC2)NC(=O)[C@@H]2CCCN2C(=O)[C@H](CCc2ccc(C(F)(F)F)c(Cl)c2)NC(=O)CN(C)C(=O)[C@@H]1Cc1ccc(C(F)(F)F)cc1 [PP0407] ([NMeL]I[Sar][Aze][NPrPhe(4-CF3)][Sar][hPhe(3-Cl-4-CF3)]P[Ac4c][NMeGly(cPent)][NMeD]-Morpholide; lactam N-11) | – | C (A compound having a KD ratio of 0.1 or more and less than 3 is denoted as C) | B (a compound having 3 or more and less than 10 is denoted as B) | 7.6 | – | – | – | Kd [1, 5]: 0.11 nM
5 | CCC[C@H]1C(=O)N[C@@H](CC(C)C)C(=O)N(CC)CC(=O)N(C)[C@H]2C/C=C\CCN(C2=O)[C@@H](Cc2ccc(C)cc2)C(=O)N(C)CC(=O)N[C@@H](CCc2cc(F)c(C(F)(F)F)c(F)c2)C(=O)N2C[C@H](OCC)C[C@H]2C(=O)NC2(CC(C)(C)C2)C(=O)N(C)[C@@H](C2CCCC2)C(=O)N(C)[C@H](C(=O)N(C)C)CC(=O)N1C [PP2516] | 2.9 | A (a compound having 10 or more and less than 20 is denoted as A) | B (a compound having 3 or more and less than 10 is denoted as B) | 124 | – | – | – | –
6 | CCC[C@H]1C(=O)N[C@@H]([C@@H](C)CC)C(=O)N(C)CC(=O)N(C)[C@H]2C/C=C\CCN(C2=O)[C@@H](Cc2ccc(C(F)(F)F)cc2)C(=O)N(C)CC(=O)N[C@@H](CCc2ccc3sccc3c2)C(=O)N2C[C@H](OCC)C[C@H]2C(=O)NC2(CCC2)C(=O)N(C)[C@@H](C(CC)CC)C(=O)N(C)[C@H](C(=O)N(C)C)CC(=O)N1C [PP1224] | – | – | – | 122 | 1.2 | A (a compound having 10 or more and less than 20 is denoted as A) | A (a compound having 10 or more and less than 20 is denoted as A) | –
7 | CCCO[C@@H]1C[C@H]2C(=O)NC3(CC(C)(C)C3)C(=O)N(C)[C@@H](C3CCCC3)C(=O)N(C)[C@H](C(=O)N(C)CC)CC(=O)N(C)[C@H]3CCCc4ccc(cc4)C[C@@H](C(=O)N(C)CC(=O)N[C@@H](CCc4ccc(C(F)(F)F)c(OC)c4)C(=O)N2C1)N1CC/C=C\C[C@@H](C1=O)N(C)C(=O)CN(C1CC1)C(=O)[C@H]([C@@H](C)CC)NC3=O [PP3088] | 0.34 | B (a compound having 3 or more and less than 10 is denoted as B) | B (a compound having 3 or more and less than 10 is denoted as B) | – | – | – | – | ratio of the KD value with respect to GDP-bound NRAS wild-type protein to the KD value with respect to KRAS ([2]; SPR, KD(NRAS)/KD(KRAS)): B (a compound having 3 or more and less than 10 is denoted as B); ratio of the KD value with respect to GDP-bound HRAS wild-type protein to the KD value with respect to KRAS ([3]; SPR, KD(HRAS)/KD(KRAS)): B (a compound having 3 or more and less than 10 is denoted as B); IC50 ([4]; read-out: NCI-H441 cell proliferation inhibitory activity, 50% proliferation inhibitory concentration (IC50 value), NCI-H441, four days, CellTiter-Glo): 15.1 nM
8 | CCOC[C@H]1C(=O)N[C@@H]([C@@H](C)CC)C(=O)N(C)CC(=O)N(C)[C@H]2C/C=C\CCN(C2=O)[C@@H](Cc2ccc(C(F)(F)F)cc2)C(=O)N(C)CC(=O)N[C@@H](CCc2cc(F)c(C(F)(F)F)c(F)c2)C(=O)N2C[C@H](OCC)C[C@H]2C(=O)NC2(CCC2)C(=O)N(C)[C@@H](C2CCCC2)C(=O)N(C)[C@H](C(=O)N(C)C)CC(=O)N1C [PP1266, (2S,8S,12R,14S,20S,23S,27S,30S,36S,38Z)-20-cyclopentyl-8-[2-[3,5-difluoro-4-(trifluoromethyl)phenyl]ethyl]-12-ethoxy-27-(ethoxymethyl)-N,N,4,19,22,26,32,35-octamethyl-30-[(1S)-1-methylpropyl]-3,6,9,15,18,21,25,28,31,34,42-undecaoxo-2-[[4-(trifluoromethyl)phenyl]methyl]spiro[1,4,7,10,16,19,22,26,29,32,35-undecazatricyclo[34.5.1.0^10,14]dotetracont-38-ene-17,1′-cyclobutane]-23-carboxamide] | – | – | – | 12.2 | 0.045 | A (a compound having 10 or more and less than 20 is denoted as A) | A (a compound having 10 or more and less than 20 is denoted as A) | –
9 | CCO[C@@H]1C[C@H]2C(=O)NC3(CCC3)C(=O)N(C)[C@@H](C3CCCC3)C(=O)N(C)[C@H](C(=O)N3CCCC3)CC(=O)N(C)[C@@H](CC(C)C)C(=O)N[C@@H]([C@@H](C)CC)C(=O)N(C)CC(=O)N(C)[C@H]3C/C=C\CCN(C3=O)[C@@H](Cc3ccc(C)cc3)C(=O)N(C)CC(=O)N[C@@H](CCc3cc(F)c(C(F)(F)F)c(F)c3)C(=O)N2C1 [PP1416] | – | – | – | 3.8 | 0.17 | A (a compound having 10 or more and less than 20 is denoted as A) | A (a compound having 10 or more and less than 20 is denoted as A) | –
10 | CCO[C@@H]1C[C@H]2C(=O)NC3(CCC3)C(=O)N(C)[C@@H](C3CCCC3)C(=O)N(C)[C@H](C(=O)N3CCOCC3)CC(=O)N(C)[C@@H](Cc3ccccc3C#N)C(=O)N[C@@H]([C@@H](C)CC)C(=O)N(C)CC(=O)N(C)[C@H]3CCCCCN(C3=O)[C@@H](Cc3ccc(C(F)(F)F)cc3)C(=O)N(C)CC(=O)N[C@@H](CCc3cc(F)c(C(F)(F)F)c(F)c3)C(=O)N2C1 [PP1165] | 1.5 | A (a compound having 10 or more and less than 20 is denoted as A) | B (a compound having 3 or more and less than 10 is denoted as B) | 295 | – | – | – | –
11 | CC[C@H](C)[C@@H]1NC(=O)[C@H](CC(C)C)N(C)C(=O)C[C@@H](C(=O)N(C)C)N(C)C(=O)[C@H](C2CCCC2)N(C)C(=O)C2(CC(C)(C)C2)NC(=O)[C@@H]2C[C@H](C)CN2C(=O)[C@H](CCc2ccc(C(F)(F)F)c(OC)c2)NC(=O)CN(C)C(=O)[C@H](Cc2ccc(C)cc2)N2CC/C=C\C[C@@H](C2=O)N(C)C(=O)[C@@H]2CCCN2C1=O [PP2409] | 0.48 | A (a compound having 10 or more and less than 20 is denoted as A) | B (a compound having 3 or more and less than 10 is denoted as B) | 31.9 | – | – | – | –
12 | CCO[C@@H]1C[C@H]2C(=O)NC3(CCC3)C(=O)N(C)[C@@H](C(CC)CC)C(=O)N(C)[C@H](C(=O)N(C)C)CC(=O)N(C)[C@@H](CC3CC3)C(=O)N[C@@H]([C@@H](C)CC)C(=O)N(C)CC(=O)N(C)[C@H]3C/C=C\CCN(C3=O)[C@@H](CC3CCCCC3)C(=O)N(C)CC(=O)N[C@@H](CCc3cc(F)c(C(F)(F)F)c(F)c3)C(=O)N2C1 [PP1428] | – | – | – | 38.8 | 0.87 | AA (a compound having 20 or more is denoted as AA) | A (a compound having 10 or more and less than 20 is denoted as A) | –

From patent publication US20240158446A1, “CYCLIC COMPOUND HAVING SELECTIVE INHIBITORY ACTION ON KRAS OVER HRAS AND NRAS” (CHUGAI SEIYAKU KABUSHIKI KAISHA, priority 2021, published 2024)
